Laboratory results: patent US20150315218A1, “SALTS OF PRODRUGS OF PIPERAZINE AND SUBSTITUTED PIPERIDINE ANTIVIRAL AGENTS” (Bristol-Myers Squibb Company, priority 2004, published 2015)
In brackets after ≈: the same amount, converted by molar mass. Like-named read-outs stand apart in the source and are kept apart here.

Key:
[1] = IV and oral rat PK (MAP) studies A, B, C of phosphate prodrugs and parent studies A1, B1, C1; type: in vivo, Sprague-Dawley rats; details: rats; for Vd / concentration at 24 h / AUC(0-t) / Tmax / Cmax / half-life: male, Sprague-Dawley, rat; for Vd: read-out: Vss i.v.; for concentration at 24 h: oral, read-out: Cp @ 24 hr p.o.; for AUC(0-t): AUC 0-24 h (μM * hr)
Procedure: The rats for oral dosing studies were fasted overnight. […] The dosing solutions of all three prodrugs for both IV and oral administration were prepared in 100% normal saline at 1 mg/mL (dosing solution concentrations were parent compound equivalent). Plasma samples were collected in EDTA vacutainers over 24 hrs, and analyzed by LC/MS/MS for both the prodrugs and parent molecules. Pharmacokinetic analysis was performed on Kinetica™.
Plasma and tissue samples were collected and stored at −20° C. until analysis. […] Rats were fasted overnight in PO studies. […] In the PO studies, rats (n=3) received PO doses of 5 and 100 mg/kg.
Male Sprague-Dawley rats (300-350 g, Hilltop Lab Animals, Inc., Scottdale, Pa.) with cannulas implanted in the jugular vein and/or bile duct were used. The rats were fasted overnight in the PO pharmacokinetic studies. Blood samples of 0.3 ml were collected from the jugular vein in EDTA-containing microtainer tubes (Becton Dickinson, Franklin Lakes, N.J.), and centrifuged to separate plasma.

physchem = details: aqueous, aqueous buffer, thermodynamic from solid
[2] = Stability of prodrug in fresh EDTA blood (monkey); details: Monkey EDTA blood
Procedure: (§1) The stability of Iab was studied in fresh blood and serum from rat, dog, monkey and human (n=2). The blood was collected in vacutainers containing K2EDTA (Becton Dickinson, Franklin Lakes, N.J.). The serum was collected in vacutainers containing no anticoagulant. Iab was incubated at a starting concentration of approximately 10 μM for 60-90 min at 37° C. Serial samples were taken at the pre-determined times. Aliquots of blood samples (200 μL) were first mixed with 100 μL of water followed by 400 μL of acetonitrile. The serum samples (50 μL) were added into microtainers containing K2EDTA (Becton Dickinson, Franklin Lakes, N.J.) followed by the addition of 100 μL of acetonitrile. The supernatant was analyzed for both Iab and IVa by LC/MS/MS. The stability of Ibb was studied in fresh blood and serum from rat, dog, monkey and human (n=2). The blood was collected in vacutainers containing K2EDTA (Becton Dickinson, Franklin Lakes, N.J.). The serum was collected in vacutainers containing no anticoagulant. Ibb was incubated at a starting concentration of approximately 15 μM for 90 min at 37° C. Serial samples were taken at the pre-determined times. Aliquots of blood samples (200 μL) were first mixed with 100 μL of water followed by 400 μL of acetonitrile. The serum samples (50 μL) were added into microtainers containing K2EDTA (Becton Dickinson, Franklin Lakes, N.J.) followed by the addition of 100 μL of acetonitrile. […] The stability of Icb was studied in fresh blood and serum from rat, dog, monkey and human (n=2). The blood was collected in vacutainers containing K2EDTA (Becton Dickinson, Franklin Lakes, N.J.). The serum was collected in vacutainers containing no anticoagulant. Icb was incubated at a starting concentration of approximately 10 μM for 90 min at 37° C. Serial samples were taken at the pre-determined times. Aliquots of blood samples (200 μL) were first mixed with 100 μL of water followed by 400 μL of acetonitrile. The serum samples (50 μL) were added into microtainers containing K2EDTA (Becton Dickinson, Franklin Lakes, N.J.) followed by the addition of 100 μL of acetonitrile.

[3] = Stability of prodrug in fresh EDTA blood (rat); details: Rat EDTA blood
Procedure: as §1

[4] = Stability (hydrolysis) of prodrug in fresh serum (dog); details: Dog Serum
Procedure: as §1

[5] = Effect of food on oral absorption of IVa in dogs after Iab or IVa capsules; type: in vivo, dog; details: for AUC / Cmax / Tmax / half-life: dog, po, 20 mg/kg
Procedure: To study the effect of food on the oral absorption of IVa after administration of Iab and IVa, these two compounds were administered in capsules as solid to a group of three dogs in a cross-over fashion under overnight fasting and fed conditions. There was a one-week washout period between each study. Iab was administered at 200 mg per dog (ca 20 mg/kg) of IVa equivalent; IVa was administered in a clinical capsule formulation at 200 mg per dog (ca 20 mg/kg). In the studies where the dogs were fed, the following meal was prepared: 2 slices of bacon, 2 eggs, 2 pieces of toast with butter and jelly, 4 oz. hash browns and 8 oz. of whole milk. After homogenization using a laboratory blender, the meal was equally divided into five portions and kept frozen. Before the study, the meals were thawed and each dog was fed one portion.

[6] = plasma, 1 mg/kg, historic, parent IV 1 mpk
[7] = plasma, 5 mg/kg, after PO prodrug dosing equivalent to 5 mpk of parent, analyte = label
[8] = plasma, 5 mg/kg, historic, after PO dosing of parent 5 mpk
[9] = plasma, po, 5 mg/kg, after PO prodrug dosing equivalent to 5 mpk of parent, analyte = label
[10] = plasma, po, 5 mg/kg, historic, after PO dosing of parent 5 mpk
[11] = plasma, po, 5 mg/kg, after PO prodrug dosing equivalent to 5 mpk of parent
[12] = plasma, iv, 1 mg/kg, after IV prodrug dosing equivalent to 1 mpk of parent, analyte = label, read-out: T1/2 i.v. (converted)
[13] = plasma, iv, 1 mg/kg, historic, parent IV 1 mpk, read-out: T1/2 i.v. (converted)
[14] = plasma, po, 5 mg/kg, after PO prodrug dosing equivalent to 5 mpk of parent, read-out: T1/2 p.o. (converted)
[15] = plasma, po, 5 mg/kg, historic, after PO dosing of parent 5 mpk, read-out: T1/2 p.o. (converted)
[16] = parent AUC after prodrug dosing vs after parent dosing
[17] = in vivo, dogs, IVa Clinical Form Capsules, Fasting
[18] = in vivo, dogs, IVa Clinical Form Capsules, Fed
[19] = plasma, IVa after Iab dry-filled capsules, Fasting
[20] = plasma, IVa after Iab dry-filled capsules, Fed
[21] = dogs, IVa Clinical Form Capsules (20 mg/kg)

For `COc1cnc(-n2cnc(C)n2)c2[nH]cc(C(=O)C(=O)N3CCN(C(=O)c4ccccc4)CC3)c12` [IVc], which Vd [1, 6] is on record?
The Vd was 0.4 ± 0.09 L/kg.

What about the concentration at 24 h [1, 7] of the same compound?
Its concentration at 24 h is 84.3 nM.

And the concentration at 24 h [1, 8]?
Its concentration at 24 h is 61 nM.

And the AUC(0-t) [1, 9]?
Its AUC(0-t) is 56 ± 7.5 µM·h.

And the AUC(0-t) [1, 10]?
The AUC(0-t) was 110 ± 25 µM·h.

And the Tmax [1, 11]?
Its Tmax is 0.8 ± 0.1 h.

And the Cmax [1, 9]?
Its Cmax is 10200 ± 2100 nM.

What about the Cmax [1, 10] of the same compound?
The Cmax was 13400 ± 3600 nM.

And the Tmax [1, 10]?
The Tmax was 4 h.

Which results are given for `O=C(C(=O)N1CCN(C(=O)c2ccccc2)CC1)c1c[nH]c2c(-n3ccnn3)ncc(F)c12` [IVb]?
Cmax ([1]; in vivo, 5 mg/kg, historic, after PO dosing of parent 5 mpk): 9500 ± 2800 nM; Vd [1, 6]: 0.49 ± 0.26 L/kg; half-life [1, 12]: 1.5 ± 0.2 h; half-life [1, 13]: 5.9 ± 4.9 h; concentration at 24 h [1, 7]: 7.5 nM; concentration at 24 h [1, 8]: 161 nM; AUC(0-t) [1, 9]: 13.7 ± 2.6 µM·h; AUC(0-t) [1, 10]: 86 ± 33 µM·h; Tmax [1, 11]: 1.1 h; Cmax [1, 9]: 3900 ± 800 nM; half-life [1, 14]: 2.4 ± 0.5 h; Tmax [1, 10]: 4.6 h; half-life [1, 15]: 3.7 ± 0.9 h; solubility (physchem): 7 to 190 µg/mL (≈ 15.6 to 425 µM)

With `COc1ncc(OC)c2c(C(=O)C(=O)N3CCN(C(=O)c4ccccc4)CC3)c[nH]c12` [IVa, N-(benzoyl)-N′-[(4,7-dimethoxy-6-azaindol-3-yl)-oxoacetyl]piperazine] as the compound, how does the “% IVa Formed (of starting concentration of Iab)” value (from here on “% IVa Formed”) ([2]; 0 min) read?
Its value is 0.13%.

What about the “Iab / IVa Formed” value ([2]; 0 min) of the same compound?
Its value is 0.011 µM.

And the “% IVa Formed” value ([2]; 20 min)?
The value was 0.28%.

And the “Iab / IVa Formed” value ([2]; 20 min)?
The value was 0.024 µM.

And the “% IVa Formed” value ([2]; 40 min)?
The value was 0.48%.

And the “Iab / IVa Formed” value ([2]; 40 min)?
The value was 0.041 µM.

And the “% IVa Formed” value ([2]; 60 min)?
The value was 0.56%.

What about the “Iab / IVa Formed” value ([2]; 60 min) of the same compound?
Its value is 0.048 µM.

What about the Vd [1, 6] of the same compound?
Its Vd is 1.4 ± 0.4 L/kg.

And the half-life [1, 12]?
The half-life was 2.8 ± 1.5 h.

And the half-life [1, 13]?
Its half-life is 4 ± 2.6 h.

What about the concentration at 24 h [1, 7] of the same compound?
The concentration at 24 h was 35.2 nM.

And the concentration at 24 h [1, 8]?
The concentration at 24 h was 9.2 nM.

What about the AUC(0-t) [1, 9] of the same compound?
The AUC(0-t) was 5.9 ± 1 µM·h.

What about the AUC(0-t) [1, 10] of the same compound?
The AUC(0-t) was 14.9 ± 6.2 µM·h.

And the Tmax [1, 11]?
The Tmax was 1.7 h.

And the Cmax [1, 9]?
The Cmax was 1400 ± 600 nM.

What about the half-life [1, 14] of the same compound?
Its half-life is 3.3 ± 2.2 h.

What about the Cmax [1, 10] of the same compound?
Its Cmax is 4500 ± 1500 nM.

And the Tmax [1, 10]?
Its Tmax is 2 h.

And the half-life [1, 15]?
Its half-life is 1.9 ± 0.8 h.

What about the “CL i.v.” value ([1]; historic, parent IV 1 mpk) of the same compound?
The value was 13 ± 4.6 mL/min/kg.

And the “AUC0 tot ratio after IV administration*” value [1, 16]?
Its value is 0.534.

What about the “AUCtot ratio after PO administration**” value [1, 16] of the same compound?
Its value is 0.39.

What about the “% IVa Formed” value ([3]; 0 min) of the same compound?
The value was 0.24%.

What about the “Iab / IVa Formed” value ([3]; 37°C, 0 min) of the same compound?
The value was 0.019 µM.

What about the “% IVa Formed” value ([3]; 20 min) of the same compound?
The value was 0.70%.

And the “Iab / IVa Formed” value ([3]; 20 min)?
The value was 0.056 µM.

What about the “% IVa Formed” value ([3]; 40 min) of the same compound?
Its value is 0.90%.

What about the “Iab / IVa Formed” value ([3]; 40 min) of the same compound?
The value was 0.072 µM.

What about the “% IVa Formed” value ([3]; 60 min) of the same compound?
Its value is 1.2%.

What about the “Iab / IVa Formed” value ([3]; 60 min) of the same compound?
Its value is 0.093 µM.

And the solubility (physchem)?
Its solubility is 40 to 900 µg/mL (≈ 94.7 to 2130 µM).

And the “Iab / IVa Formed” value ([4]; 37°C, 0 min)?
The value was 0.066 µM.

What about the “Iab / IVa Formed” value ([4]; 15 min) of the same compound?
The value was 0.85 µM.

And the “Iab / IVa Formed” value ([4]; 30 min)?
Its value is 1.6 µM.

And the “Iab / IVa Formed” value ([4]; 45 min)?
Its value is 2.5 µM.

And the “Iab / IVa Formed” value ([4]; 60 min)?
The value was 3.2 µM.

And the “Iab / IVa Formed” value ([4]; 90 min)?
Its value is 4.4 µM.

And the AUC ([5]; in vivo, dogs, IVa Clinical Form Capsules (20 mg/kg), Fed)?
The AUC was 96 ± 10 µM·h.

And the Cmax [5, 17]?
The Cmax was 1200 ± 220 nM.

What about the Tmax [5, 17] of the same compound?
The Tmax was 3.3 ± 1.2 h.

What about the Cmax [5, 18] of the same compound?
The Cmax was 11000 ± 990 nM.

And the Tmax [5, 18]?
Its Tmax is 4 h.

What about the Cmax [5, 19] of the same compound?
The Cmax was 70000 ± 12000 nM.

And the Tmax [5, 19]?
The Tmax was 2 h.

What about the half-life [5, 19] of the same compound?
Its half-life is 4.2 ± 0.42 h.

And the Cmax [5, 20]?
The Cmax was 130000 ± 102000 nM.

What about the Tmax [5, 20] of the same compound?
Its Tmax is 1.5 ± 0.87 h.

What about the half-life [5, 20] of the same compound?
The half-life was 3.2 ± 1 h.

And the AUC ([5]; plasma, IVa in dogs after Iab dry-filled capsules (20 mg/kg of IVa equivalent), Fasting, n = 3)?
Its AUC is 414 ± 70 µM·h.

What about the AUC ([5]; plasma, IVa in dogs after Iab dry-filled capsules (20 mg/kg of IVa equivalent), Fed) of the same compound?
Its AUC is 422 ± 57 µM·h.

What about the AUC ([5]; plasma, dogs, IVa Clinical Form Capsules (20 mg/kg), Fasting, n = 3) of the same compound?
The AUC was 11 ± 1.4 µM·h.

What about the half-life ([5]; plasma, dogs, IVa Clinical Form Capsules, Fasting) of the same compound?
Its half-life is 5.3 ± 2.7 h.

And the half-life ([5]; plasma, dogs, IVa Clinical Form Capsules, Fed)?
The half-life was 8 ± 3.1 h.

What about the “improvement in AUC and Cmax (exposure) in fed vs fasted dogs” value ([5]; dogs receiving IVa clinical capsule, high fat meal) of the same compound?
Its value is 9 fold.

What about the “AUCtot Fed/Fasting Ratio” value [5, 21] of the same compound?
Its value is 9.0 ± 2.2.

And the “Cmax Fed/Fasting Ratio” value [5, 21]?
Its value is 9.1 ± 0.92.
